The source of these data is ChEMBL document CHEMBL1201862, “PubChem BioAssay data set” (2004).

Test systems include M14; UO-31; HL-60; COLO 205; HCC 2998; HT-29; NCI-H522; RPMI-8226; OVCAR-3; SK-MEL-28; HOP-62; NCI-H460; SW-620; UACC-62; SK-OV-3; KM12; K562; MOLT-4; UACC-257; RXF 393.
Assay in all cases: NCI anticancer screen, dose series, 48 h

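Protocol summary: plate cells (96-well), add compound at 5 concentrations, incubate 48 h, interpolate endpoints linearly. At the GI50, growth is halved.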 Activity calls are given as the source filed them. Cut-off read from the data, not from the text of the source: active = GI50 up to about 1.1 µM and inactive = higher.

On to `CC(C)=CC1(C)/C(=N\O)C(C)(CC(C)C)C(=O)N1O` (stereo not given), for which the GI50 with M14, with UO-31, with HL-60, in the assay on COLO 205, with HCC 2998 and in the assay on HT-29 was > 100 µM (inactive) in each case. Also, the GI50 in the assay with NCI-H522, in the assay with RPMI-8226, in the assay on OVCAR-3, in the assay with SK-MEL-28, in the assay on HOP-62 and in the assay with NCI-H460 was > 100 µM (inactive) each time. Besides, the GI50 with SW-620, with UACC-62, in the assay on SK-OV-3, with KM12, with K562 and in the assay with MOLT-4 was > 100 µM (inactive) each time. Further, the GI50 in the assay on UACC-257 and with RXF 393 was > 100 µM (inactive) in each case.
Regarding `COC(=O)/C=C\C(C#N)(C#N)/N=C/c1cccs1`, the GI50 in the assay with M14 is 4.35 µM (inactive); in the assay on UO-31, 2.26 µM (inactive); in the assay on HL-60, 1.63 µM (inactive); with COLO 205, 3.68 µM (inactive); with HCC 2998, 18.9 µM (inactive); with HT-29 it was 2 µM (inactive). The GI50 is 0.783 µM (active) in the assay on NCI-H522; 2.11 µM (inactive) with RPMI-8226; 11.1 µM (inactive) with OVCAR-3; 8.83 µM (inactive) in the assay with SK-MEL-28; 17.6 µM (inactive) in the assay on HOP-62; 19.6 µM (inactive) in the assay with NCI-H460. Moreover, the GI50 with SW-620 was 1.87 µM (inactive); in the assay on UACC-62 it was 11.6 µM (inactive); with SK-OV-3, 19 µM (inactive); in the assay with KM12 it was 17.2 µM (inactive); with K562, 3.95 µM (inactive); in the assay on MOLT-4, 0.982 µM (active). Also, the values for the GI50 in the assay on UACC-257 and in the assay with RXF 393 were 14.4 µM (inactive) and 2.51 µM (inactive), respectively.
`O=C(NC1C=CCC2C(=O)N(c3ccccc3)C(=O)C12)OCc1ccccc1` (stereo not given): the GI50 with M14, with UO-31, in the assay on HL-60, with COLO 205, with HCC 2998 and with HT-29 was > 100 µM (inactive) in each case. The GI50 with NCI-H522, with RPMI-8226, in the assay with OVCAR-3, in the assay on SK-MEL-28, in the assay with HOP-62 and in the assay with NCI-H460 was > 100 µM (inactive) throughout. Moreover, the GI50 with SW-620, in the assay with UACC-62, with SK-OV-3, in the assay with KM12, in the assay with K562 and in the assay with MOLT-4 was > 100 µM (inactive) throughout. In addition, the GI50 in the assay on UACC-257 and with RXF 393 was > 100 µM (inactive) in each case.
Regarding `C[C@H](O)C(=O)SC[C@H](NC(=O)CC[C@@H](N)C(=O)O)C(=O)NCC(=O)O`, the GI50 was > 100 µM (inactive) in the assay with M14; > 100 µM (inactive) in the assay on UO-31; > 10 µM (inactive) with HL-60; > 100 µM (inactive) in the assay with COLO 205; > 100 µM (inactive) in the assay with HCC 2998; > 100 µM (inactive) in the assay on HT-29. Moreover, the GI50 in the assay with NCI-H522, in the assay with RPMI-8226, in the assay on OVCAR-3, in the assay on SK-MEL-28, with HOP-62 and in the assay on NCI-H460 was > 100 µM (inactive) in each case. Also, the GI50 in the assay on SW-620, in the assay on UACC-62, in the assay on SK-OV-3, with KM12, with K562 and in the assay with MOLT-4 was > 100 µM (inactive) each time. In addition, the GI50 with UACC-257 and in the assay with RXF 393 was > 100 µM (inactive) throughout.
